Test results taken from patent US11484031B2, “Seed coating agent for preventing and treating wheat rot disease” (Institute of Plant Protection and Agro-products Safety, …, priority 2020, dated 2022).

Experiments:
[1] = tested on: Gaeumannomycesgraminisvar. tritici; assay: Mycelial growth assay (virulence test) of single agents and mixtures, Wadley method; type: cell-based; settings: mycelial growth on medicated medium, 25° C.; ratio G:D = silothiamine:coumoxystrobin
Protocol: The bactericidal properties of silthiopham and coumoxystrobin are analyzed in detail. First, the EC50 ([…]) of the two single compounds of silthiostrobin and coumoxystrobin is determined. According to the EC50 of the two single drugs, the combination ratio of the two drugs is determined according to the Wadley method, and synergy coefficient SR value according to Wadley.
The test target is Gaeumannomycesgraminisvar. tritici, which causes wheat rot disease, but it is not limited to this. Silthiopham and coumoxystrobin are taken and prepared into a liquid plate about 15 ml per dish. At the edge of the pre-cultured colony, a 5 mm diameter hyphae block is prepared with a sterile puncher, and then transferred to different medium plates and cultured at 25° C. The test adopts the mycelial growth assay method, and prepares medicated medium according to different treatments. At the edge of the pre-cultured colony, a 5 mm diameter hyphae block is prepared with a sterile puncher, and then transferred to medium plates with different drug contents. […]
According to the Wadley method to evaluate the interaction of the mixture, the calculation formula is as follows: EC50(theoretical value)=(a+b)/(a/EC50a+b/EC50b), SR=EC50(theoretical value)/EC50(actual value). wherein, a and b are the content ratio of each component in the mixture, and the effect of mixing is analyzed by SR value. […]

wheat seeds = assay: Seed soaking test: emergence rate and seedling stage of wheat seeds; type: in vivo, wheat variety "An Nong 0711"; settings: seed soaking seed:drug solution=1:2, 20 minutes, after 40 days, compound sodium nitrophenolate at 0.05%, salicylic acid at 0.01%
Protocol: Seed initiator composition 1 with a measured content of 0.06% (compound sodium nitrophenolate 0.05%, salicylic acid 0.01%, the balance water) was diluted 10 times to form seed initiator composition 2 with a content of 0.006% (compound sodium nitrophenolate 0.005%, salicylic acid 0.001%, the balance water). The seed initiator composition 2 was treated with 0.05% compound sodium nitrophenolate, 0.01% salicylic acid and distilled water as a control. The effect on […] seed vigor was determined according to the above compositions. The experimental wheat variety was “An Nong 0711”, and the experiment was carried out in the experimental base of Anhui Academy of Agricultural Sciences. Seed soaking is carried out according to the weight ratio of seed:drug solution=1:2. After soaking for 20 minutes, sowing in the shade and drying in the shade, the seedling emergence rate, plant height, root length and fresh weight are calculated after 40 days.

SMILES | EC50 [1] [ppm] | Fresh weight (10 plants, g) (wheat seeds; 10 plants) [g] | Emergence rate (wheat seeds) [%] | Plant height (wheat seeds) [cm] | Root length (wheat seeds) [cm]
CCCCc1c(C)c2ccc(OCc3ccccc3/C(=C\OC)C(=O)OC)cc2oc1=O [Coumoxystrobin(D), (E)-2-(2-(3-n-butyl-4methyl-coumarin-7-yloxy)methylphenyl)-3-methoxy Methyl acrylate] | 2.3127 |  |  |  | 
O=C(O)c1ccccc1O [Salicylic acid] |  | 1.28 ± 0.17 | 83.8 | 10.5 ± 1.7 | 4.8 ± 1.3
C=CCNC(=O)c1c([Si](C)(C)C)sc(C)c1C [Silothiamine(G), N-allyl-4,5-dimethyl-2-(trimethylsilyl) thiophene-3-carboxamide] | 0.6893 |  |  |  | 
